What was measured:
[1] = target: T1, rat EP4 receptor (Rattus norvegicus, UniProt P43114); test: STEP plate cAMP level assay for EP4 agonist; assay type: cell-based; conditions: cAMP readout, read-out: STEP cell functional assay EC50s cAMP/EP4
T1 construct: host or cells: cells seeded on the STEP plate
Source text: Functional Cellular Assays (STEP Plate Format)
Procedure of cAMP Assay for EP2/EP4 Agonist
3. […] In addition each concentration had triplicates.
6. Aspirate the supernatant.

[2] = test system: calvarial bone defect; test: Rat calvarial defect model (bone formation); assay type: in vivo; conditions: female Sprague Dawley rats, in calcium phosphate cement/demineralized bone matrix, 3 μg/ml to 3 mg/ml, eight weeks; data in FIG. 1

T1 sequence (P43114 whole entry): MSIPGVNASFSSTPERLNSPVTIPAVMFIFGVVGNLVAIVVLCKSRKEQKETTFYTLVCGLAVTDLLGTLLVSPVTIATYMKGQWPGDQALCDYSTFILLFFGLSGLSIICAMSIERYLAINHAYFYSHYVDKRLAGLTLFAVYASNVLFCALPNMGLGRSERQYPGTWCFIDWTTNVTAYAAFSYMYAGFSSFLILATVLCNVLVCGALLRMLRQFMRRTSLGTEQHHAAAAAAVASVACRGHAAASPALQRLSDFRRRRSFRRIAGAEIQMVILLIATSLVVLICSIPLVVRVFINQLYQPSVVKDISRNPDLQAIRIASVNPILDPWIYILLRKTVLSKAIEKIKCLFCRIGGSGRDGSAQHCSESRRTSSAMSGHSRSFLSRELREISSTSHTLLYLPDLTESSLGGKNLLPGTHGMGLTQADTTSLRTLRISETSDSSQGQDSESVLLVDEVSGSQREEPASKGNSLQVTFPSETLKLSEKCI

EC50 [1] | Structure (SMILES) | Healing of a calvarial bone defect (degree of repair) [2]
50.8 nM | COC(=O)c1ccc(CCCN2C(=O)C(F)(F)C[C@@H]2/C=C/[C@@H](O)[C@H](C)CCCc2ccccc2)s1 [Example 28E, methyl 5-(3-((R)-3,3-difluoro-5-((3S,4R,E)-3-hydroxy-4-methyl-7-phenylhept-1-en-1-yl)-2-oxopyrrolidin-1-yl)propyl)thiophene-2-carboxylate] | –
– | CCC#CC[C@H](C)[C@H](O)/C=C/[C@H]1CC(F)(F)C(=O)N1CCCCCCC(=O)O [Example 2C, 7-((R)-3,3-difluoro-5-((3S,4S,E)-3-hydroxy-4-methylnon-1-en-6-yn-1-yl)-2-oxopyrrolidin-1-yl)heptanoic acid] | Accelerated Healing

Source: patent US9701630B2, “Difluorolactam compositions for EP4-mediated osteo related diseases and conditions” (Cayman Chemical Company, Inc., priority 2012, dated 2017)
